Data: article PMC7170309, “Imidazopyridine-fused [1,3]diazepinones: modulations of positions 2 to 4 and their impacts on the anti-melanoma activity” (Journal of Enzyme Inhibition and Medicinal Chemistry, 2020)

What was measured:
Format in all cases: cell-based, human
NCI-H23 = test: NCI-60 SRB assay, NCI-H23 (NSCLC); conditions: 10 µM, 48 h; for G%: growth vs untreated control
Description: (§1) Primary anticancer assay was performed on a panel of 60 human cancer cell lines derived from nine neoplastic diseases, in accordance with the protocol of the Drug Evaluation Branch, National Cancer Institute, Bethesda, Maryland, USA[22]. Cells were incubated with tested compounds at 10 µM for 48 h. The growth percentage was evaluated spectrophotometrically using a protein binding dye, SRB. Results for each tested compound were reported as the percent of growth of treated cells when compared to untreated control cells.
(§2) To better compare the activity profile of these two series of compounds, compounds 5 and 8 were selected and then evaluated towards a panel of sixty cancer cell lines corresponding to nine different cancer types, i.e. leukaemia, melanoma, as well as lung, colon, central nervous system, ovarian, renal, prostate and breast cancers (NCI evaluation). Indeed, it is now well established that the growth inhibitory patterns of anticancer drugs against the NCI-60 cell line panel correlated well with their modes of action. For example, compounds that bind to tubulin have similar growth inhibition patterns regardless of which site on tubulin they bind[30]. […] Compounds were tested using the sulforhodamine B (SRB) assay that provides a direct cell density index. The amount of dye incorporated by the cells increases with the increase of the total protein biomass. Cells were incubated for 48 h with compounds at 10 µM concentration, then cell growth was evaluated spectrophotometrically and presented as the percent of untreated control cells. Values of the most sensitive cell lines were compared to those obtained with JMV5038 (Figure 4, for all data see SI).

NCI-H460 = test: NCI-60 SRB assay, NCI-H460 (NSCLC); conditions: 10 µM, 48 h; for G%: growth vs untreated control
Description: as §1, §2

NCI-H522 = test: NCI-60 SRB assay, NCI-H522 (NSCLC); conditions: 10 µM, 48 h; for G%: growth vs untreated control
Description: as §1, §2

KM12 = test: NCI-60 SRB assay, KM12 (Colon Cancer); conditions: 10 µM, 48 h; for G%: growth vs untreated control
Description: as §1, §2

SW-620 = test: NCI-60 SRB assay, SW-620 (Colon Cancer); conditions: 10 µM, 48 h; for G%: growth vs untreated control
Description: as §1, §2

SF-268 = test: NCI-60 SRB assay, SF-268 (CNS Cancer); conditions: 10 µM, 48 h; for G%: growth vs untreated control
Description: as §1, §2

SF-295 = test: NCI-60 SRB assay, SF-295 (CNS Cancer); conditions: 10 µM, 48 h; for G%: growth vs untreated control
Description: as §1, §2

SF-539 = test: NCI-60 SRB assay, SF-539 (CNS Cancer); conditions: 10 µM, 48 h; for G%: growth vs untreated control
Description: as §1, §2

SNB-75 = test: NCI-60 SRB assay, SNB-75 (CNS Cancer); conditions: 10 µM, 48 h; for G%: growth vs untreated control
Description: as §1, §2

U251 = test: NCI-60 SRB assay, U251 (CNS Cancer); conditions: 10 µM, 48 h; for G%: growth vs untreated control
Description: as §1, §2

SK-MEL-28 = test: NCI-60 SRB assay, SK-MEL-28 (Melanoma); conditions: 10 µM, 48 h; for G%: growth vs untreated control
Description: as §1, §2

UACC-257 = test: NCI-60 SRB assay, UACC-257 (Melanoma); conditions: 10 µM, 48 h; for G%: growth vs untreated control
Description: as §1, §2

IGROV1 = test: NCI-60 SRB assay, IGROV1 (Ovarian Cancer); conditions: 10 µM, 48 h; for G%: growth vs untreated control
Description: as §1, §2

OVCAR-3 = test: NCI-60 SRB assay, OVCAR-3 (Ovarian Cancer); conditions: 10 µM, 48 h; for G%: growth vs untreated control;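 for Mean G% - G%: mean growth across the NCI-60 panel minus this line's growth with positive meaning more sensitive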
Description: as §1, §2

OVCAR-4 = test: NCI-60 SRB assay, OVCAR-4 (Ovarian Cancer); conditions: 10 µM, 48 h; for G%: growth vs untreated control;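 for Mean G% - G%: mean growth across the NCI-60 panel minus this line's growth with positive meaning more sensitive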
Description: as §1, §2

OVCAR-5 = test: NCI-60 SRB assay, OVCAR-5 (Ovarian Cancer); conditions: 10 µM, 48 h; for G%: growth vs untreated control;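 for Mean G% - G%: mean growth across the NCI-60 panel minus this line's growth with positive meaning more sensitive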
Description: as §1, §2

OVCAR-8 = test: NCI-60 SRB assay, OVCAR-8 (Ovarian Cancer); conditions: 10 µM, 48 h; for G%: growth vs untreated control;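 for Mean G% - G%: mean growth across the NCI-60 panel minus this line's growth with positive meaning more sensitive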
Description: as §1, §2

NCI/ADR-RES = test: NCI-60 SRB assay, NCI/ADR-RES (Ovarian Cancer); conditions: 10 µM, 48 h; for G%: growth vs untreated control
Description: as §1, §2

SK-OV-3 = test: NCI-60 SRB assay, SK-OV-3 (Ovarian Cancer); conditions: 10 µM, 48 h; for G%: growth vs untreated control
Description: as §1, §2

786-0 = test: NCI-60 SRB assay, 786-0 (Renal Cancer); conditions: 10 µM, 48 h; for G%: growth vs untreated control
Description: as §1, §2

A498 = test: NCI-60 SRB assay, A498 (Renal Cancer); conditions: 10 µM, 48 h; for G%: growth vs untreated control
Description: as §1, §2

ACHN = test: NCI-60 SRB assay, ACHN (Renal Cancer); conditions: 10 µM, 48 h; for G%: growth vs untreated control
Description: as §1, §2

CAKI-1 = test: NCI-60 SRB assay, CAKI-1 (Renal Cancer); conditions: 10 µM, 48 h; for G%: growth vs untreated control
Description: as §1, §2

SN12C = test: NCI-60 SRB assay, SN12C (Renal Cancer); conditions: 10 µM, 48 h; for G%: growth vs untreated control
Description: as §1, §2

PC-3 = test: NCI-60 SRB assay, PC-3 (Prostate Cancer); conditions: 10 µM, 48 h; for G%: growth vs untreated control
Description: as §1, §2

DU-145 = test: NCI-60 SRB assay, DU-145 (Prostate Cancer); conditions: 10 µM, 48 h; for G%: growth vs untreated control
Description: as §1, §2

MDA-MB-231 = test: NCI-60 SRB assay, MDA-MB-231 (Breast Cancer); conditions: 10 µM, 48 h; for G%: growth vs untreated control
Description: as §1, §2

T-47D = test: NCI-60 SRB assay, T-47D (Breast Cancer); conditions: 10 µM, 48 h; for G%: growth vs untreated control
Description: as §1, §2

MOLT-4 = test: NCI-60 SRB assay, MOLT-4 (Leukemia); conditions: 10 µM, 48 h
Description: as §1, §2

SMILES: C[C@@H]1NC(c2ccc(N=[N+]=[N-])cc2)=Nc2nc3ccccn3c2C1=O [Compound 5, (4S)-4-methyl-2-(4-azidophenyl)-3,4-dihydro-5H-pyrido[1’,2’:1,2]imidazo[4,5-d][1,3]diazepin-5-one]
- Mean G% - G% (NCI-H23): -1,81%
- G% (NCI-H23): 87,07%
- Mean G% - G% (NCI-H460): -8,41%
- G% (NCI-H460): 93,67%
- Mean G% - G% (NCI-H522): 13,32%
- G% (NCI-H522): 71,94%
- Mean G% - G% (KM12): 27,28%
- G% (KM12): 57,98%
- Mean G% - G% (SW-620): 13,36%
- G% (SW-620): 71,90%
- Mean G% - G% (SF-268): -12,35%
- G% (SF-268): 97,61%
- Mean G% - G% (SF-295): -8,18%
- G% (SF-295): 93,44%
- Mean G% - G% (SF-539): -2,57%
- G% (SF-539): 87,83%
- Mean G% - G% (SNB-75): 14,91%
- G% (SNB-75): 70,35%
- Mean G% - G% (U251): -13,85%
- G% (U251): 99,11%
- Mean G% - G% (SK-MEL-28): -9,13%
- G% (SK-MEL-28): 94,39%
- Mean G% - G% (UACC-257): -15,59%
- G% (UACC-257): 100,85%
- Mean G% - G% (IGROV1): 10,76%
- G% (IGROV1): 74,50%
- Mean G% - G% (OVCAR-3): -12,28%
- G% (OVCAR-3): 97,54%
- Mean G% - G% (OVCAR-4): -3,32%
- G% (OVCAR-4): 88,58%
- Mean G% - G% (OVCAR-5): -22,84%
- G% (OVCAR-5): 108,10%
- Mean G% - G% (OVCAR-8): -16,08%
- G% (OVCAR-8): 101,34%
- Mean G% - G% (NCI/ADR-RES): 11,92%
- G% (NCI/ADR-RES): 73,34%
- Mean G% - G% (SK-OV-3): -1,19%
- G% (SK-OV-3): 86,45%
- Mean G% - G% (786-0): -9,88%
- G% (786-0): 95,14%
- Mean G% - G% (A498): -14,16%
- G% (A498): 99,42%
- Mean G% - G% (ACHN): 0,49%
- G% (ACHN): 84,77%
- Mean G% - G% (CAKI-1): 10,49%
- G% (CAKI-1): 74,77%
- Mean G% - G% (SN12C): -18,28%
- G% (SN12C): 103,54%
- Mean G% - G% (PC-3): -10,97%
- G% (PC-3): 96,23%
- Mean G% - G% (DU-145): -18,38%
- G% (DU-145): 103,64%
- Mean G% - G% (MDA-MB-231): 4,91%
- G% (MDA-MB-231): 80,35%
- Mean G% - G% (T-47D): 8,29%
- G% (T-47D): 76,97%

SMILES: [N-]=[N+]=NCCCC[C@@H]1NC(c2ccc(Br)cc2)=Nc2nc3ccccn3c2C1=O [Compound 16, (4S)-4-(4-azidobutyl)-2-(4-bromophenyl)-3,4-dihydro-5H-pyrido[1’,2’:1,2]imidazo[4,5-d][1,3]diazepin-5-one]
- Mean G% - G% (MOLT-4): 4,57%
- G% (MOLT-4; growth vs untreated control): 87,20%
- Mean G% - G% (NCI-H23): -7,34%
- G% (NCI-H23): 99,11%
- Mean G% - G% (NCI-H460): 0,98%
- G% (NCI-H460): 90,79%
- Mean G% - G% (NCI-H522): 7,01%
- G% (NCI-H522): 84,76%
- Mean G% - G% (KM12): 10,11%
- G% (KM12): 81,66%
- Mean G% - G% (SW-620): -0,19%
- G% (SW-620): 91,96%
- Mean G% - G% (SF-268): 1,04%
- G% (SF-268): 90,73%
- Mean G% - G% (SF-295): -4,02%
- G% (SF-295): 95,79%
- Mean G% - G% (SF-539): -6,24%
- G% (SF-539): 98,01%
- Mean G% - G% (SNB-75): 4,12%
- G% (SNB-75): 87,65%
- Mean G% - G% (U251): 0,74%
- G% (U251): 91,03%
- Mean G% - G% (SK-MEL-28): -18,13%
- G% (SK-MEL-28): 109,90%
- Mean G% - G% (UACC-257): 5,48%
- G% (UACC-257): 86,29%
- Mean G% - G% (IGROV1): 70,16%
- G% (IGROV1): 21,61%
- Mean G% - G% (OVCAR-3): -11,51%
- G% (OVCAR-3): 103,28%
- Mean G% - G% (OVCAR-4): -2,91%
- G% (OVCAR-4): 94,68%
- Mean G% - G% (OVCAR-5): -11,70%
- G% (OVCAR-5): 103,47%
- Mean G% - G% (OVCAR-8): 6,78%
- G% (OVCAR-8): 84,99%
- Mean G% - G% (NCI/ADR-RES): -9,49%
- G% (NCI/ADR-RES): 101,26%
- Mean G% - G% (SK-OV-3): 5,78%
- G% (SK-OV-3): 85,99%
- Mean G% - G% (786-0): 0,98%
- G% (786-0): 90,79%
- Mean G% - G% (A498): 8,90%
- G% (A498): 82,87%
- Mean G% - G% (ACHN): 3,57%
- G% (ACHN): 88,20%
- Mean G% - G% (CAKI-1): 7,26%
- G% (CAKI-1): 84,51%
- Mean G% - G% (SN12C): -4,64%
- G% (SN12C): 96,41%
- Mean G% - G% (PC-3): -10,51%
- G% (PC-3): 102,28%
- Mean G% - G% (DU-145): -10,18%
- G% (DU-145): 101,95%
- Mean G% - G% (MDA-MB-231): 16,73%
- G% (MDA-MB-231): 75,04%
- Mean G% - G% (T-47D): 10,17%
- G% (T-47D): 81,60%
